Source: article PMC6278399, “Synthesis and Anticancer Activity Evaluation of Hydrolyzed Derivatives of Panaxnotoginseng Saponins” (Molecules, 2018)

Columns and labels:
[1] = test system: human lung cancer cells A549; assay: MTT cytotoxicity assay, A549; type: cell-based; details: 48 h
Text: (§1) In the study, five cancer cell lines (human colon cancer cells (HT-29), gastric cancer cells (BGC-823), cervical cancer cells (Hela), human breast cancer cells (MCF-7), and human lung cancer cells A549)), and two normal cell lines (human gastric epithelial cells (GES-1) and human ovarian epithelial cells (IOSE144)) were used for the evaluation of biological activity. IOSE144 cells were donated by Professor Piao Huri of Yanbian University, all other cells were purchased from the American Type Culture Collection (ATCC, Manassas, VA, USA). Cells were cultured in Dulbecco’s Modified Eagle’s Medium (DMEM), supplemented with 10% heat-inactivated fetal bovine serum (FBS), 1% 100 μg/mL penicillin and 100 μg/mL streptomycin in a humidified atmosphere containing 5% CO2 at 37 °C. Cell viability was measured using the MTT assay. Cells were seeded in 96 well microtiter plates in a volume of 100 μL medium. All compounds tested were dissolved and further diluted in DMSO. After overnight incubation, cells were treated with different test concentrations or carrier solvents alone in a final volume of 100 μL with five replicates each. […] Cells were treated with compound (80, 40, 20, 10, 5 μM) for 48 h. Then, 10 μL of MTT (5 mg/mL) was added to each well and the cells were incubated at 37 °C in the dark for 4 h. Supernatants were removed and formazan crystals were dissolved in DMSO (100 μL/well). The solution was agitated for 10 min, and the absorbance was measured at 490 nm using microplate reader (imark, BIO-RAD, Hercules, CA, USA) to calculate the 50% inhibitory concentration (IC50). Ginsenoside-Rg3, panaxadiol sapogenin (PD), AD-2 (25-OH-PPD) and AD-1 (25-OCH3-PPD) were used as standard reference compounds.

[2] = design: method as in earlier work; details: stronger than ginsenoside-Rg3; cited from earlier work
[3] = test system: cervical cancer cells (Hela); assay: MTT cytotoxicity assay, Hela; type: cell-based, human; details: 48 h
Text: as §1

[4] = MTT cytotoxicity assay, GES-1 normal cells; type: cell-based, human; details: human
Text: as §1

[5] = MTT cytotoxicity assay, IOSE144 normal cells; type: cell-based, human; details: human
Text: as §1

[6] = test system: human breast cancer cells (MCF-7); assay: MTT cytotoxicity assay, MCF-7; type: cell-based; details: MCF-7, MTT, 48 h
Text: as §1

[7] = test system: human colon cancer cells (HT-29); assay: MTT cytotoxicity assay, HT-29; type: cell-based; details: HT-29, MTT, 48 h
Text: as §1

[8] = test system: gastric cancer cells (BGC-823); assay: MTT cytotoxicity assay, BGC-823; type: cell-based, human; details: BGC-823, MTT, 48 h
Text: as §1

[9] = test system: five cancer cell lines (HT-29, BGC-823, Hela, MCF-7, A549); assay: Cytotoxic activity on five cancer cell lines (overall statement); type: cell-based, human; details: MTT
Text: as §1

[10] = test system: IOSE144 cells; assay: Cell cycle distribution assay, IOSE144; type: cell-based, human; details: IOSE144, 24 h; control 1.17%
[11] = test system: MCF-7 cells; assay: Cell cycle distribution assay, MCF-7; type: cell-based, human; details: MCF-7, 30 μM, 24 h; controls 0.73% (3b) and 1.69% (AD-1)
Experimental: MCF-7 cells treated with 30 μM of compound 3b were incubated for 24 h in CO2 incubator. AD-1 was tested as a positive control, and the experimental concentration of AD-1 was 30 μM. Cells were trypsinized, harvested, washed with PBS, and fixed with 75% ethanol overnight at −20 °C. Next, fixed cells were washed with PBS and stained for 4 h in the dark with a PI solution consisting of 50 μg/mL PI, 50 μg/mL RNase, 0.1% sodium citrate and 0.1% Triton X-100 (pH 8.0). Cell cycle distribution was determined using FACScan (Becton Dickinson, Franklin Lakes, NJ, USA).

[12] = test system: human gastric epithelial cells (GES-1); assay: MTT cytotoxicity assay, GES-1 normal cells; type: cell-based; details: GES-1 normal cells, MTT, 48 h
Text: as §1

[13] = test system: human ovarian epithelial cells (IOSE144); assay: MTT cytotoxicity assay, IOSE144 normal cells; type: cell-based; details: IOSE144 normal cells, MTT, 48 h
Text: as §1

[14] = test system: MCF-7 cells; assay: Wound healing assay; type: cell-based, human; details: MCF-7, 30 μM, 24 h, serum-free
Experimental: MCF-7 cells were seeded in 10-cm dishes at a concentration of 1 × 10^5 cells/ mL and grown overnight. Then, a wound was created in the monolayer of cells by scratching the monolayer with a sharp tip followed by another 24 h of incubation in the presence of 30 μM of compound 3b or 0.1% DMSO under serum-free conditions, 30 μM of AD-1 as a positive control. The gap created was measured under a microscope to provide an indication of the wound healing capability of the cells.

[15] = GES-1 gastric epithelial cells (normal cell line), GES-1 normal cells, MTT, 48 h, read-out: IC50
[16] = IOSE144 ovarian epithelial cells (normal cell line), IOSE144 normal cells, MTT, 48 h, read-out: IC50

| Compound | IC50 ([1]; Homo sapiens) [µM] | IC50 ([3]; Homo sapiens) [µM] | IC50 ([6]; Homo sapiens, MCF7) [µM] | IC50 ([7]; Homo sapiens) [µM] | IC50 ([8]; Homo sapiens) [µM] | IC50 at 48 h [4] [µM] | melting point [°C] | IC50 at 48 h [5] [µM] | anticancer activity (in words) [9] | other results |
| --- | --- | --- | --- | --- | --- | --- | --- | --- | --- | --- |
| CC(C)(O)CCC[C@@](C)(O)C1CC[C@]2(C)C1[C@H](O)CC1[C@@]3(C)CC[C@H](O)C(C)(C)C3CC[C@]12C (some centres unmarked) [AD-2, 25-hydroxyprotopanaxadiol, reference compound] | 34.3 ± 0.87 | 48.6 ± 1.24 | 49.6 ± 1.35 | 18.7 ± 0.28 | 44.2 ± 1.06 |  |  |  |  | antitumor activity compared with ginsenoside-Rg3 [2]: 5–15 fold; IC50 at 48 h [4, 15]: > 100 µM; IC50 at 48 h [5, 16]: > 100 µM |
| CC(=O)Oc1ccccc1C(=O)OC1CCC2(C)C(CCC3(C)C2CC(OC(=O)c2ccccc2O)C2C(C4(C)CCCC(C)(C)O4)CCC23C)C1(C)C [Compound 1b, 20(R)-Pananxadiol-3β-yl-2′-acetylbenzoate-12β-yl-2′-hydroxybenzoate] | 13.26 ± 0.11 | 11.3 ± 0.14 | 7.65 ± 0.29 | 12.2 ± 0.28 | 9.65 ± 0.61 | > 100 | 198 to 200 | > 100 | strong anticancer activity |  |
| CC(C)(CCCC(C)(O)C1CCC2(C)C1C(OC(=O)c1ccccc1O)CC1C3(C)CCC(OC(=O)c4ccccc4O)C(C)(C)C3CCC12C)OC(=O)c1ccccc1O [Compound 1a, 20(R)-Dammarane-20-hydroxy-3β,12β,25-tri-yl-2′-hydroxybenzoate] | 15.69 ± 0.1 | 3.23 ± 0.34 | 20.31 ± 0.11 | 9.23 ± 0.08 | 11.8 ± 0.21 | > 100 | 192 to 194 | > 100 | strong anticancer activity |  |
| CC(=O)Oc1ccccc1C(=O)OC1CC2C3(C)CCC(OC(=O)c4ccccc4OC(C)=O)C(C)(C)C3CCC2(C)C2(C)CCC(C3(C)CCCC(C)(C)O3)C12 [Compound 2b, 20(R)-Pananxadiol-3β, 12β-di-yl-2′-acetylbenzoate] | 15.47 ± 0.13 | 16.2 ± 0.34 | 10.25 ± 0.05 | 5.27 ± 0.14 | 8.12 ± 0.25 | > 100 | 238 to 240 | > 100 | strong anticancer activity |  |
| CC(=O)Oc1ccccc1C(=O)OC1CCC2(C)C(CCC3(C)C2CC(O)C2C(C(C)(O)CCCC(C)(C)O)CCC23C)C1(C)C (centres unmarked) [Compound 8b] | 6.12 ± 0.1 | 10 ± 0.53 | 14.7 ± 0.24 | 13.25 ± 0.05 | 10.2 ± 0.29 | > 100 | 254 to 256 | > 100 | strong anticancer activity |  |
| CC(=O)Oc1ccccc1C(=O)OC1CCC2(C)C(CCC3(C)C2CC(O)C2C(C4(C)CCCC(C)(C)O4)CCC23C)C1(C)C (centres unmarked) [Compound 3b] | 14.37 ± 0.04 | 20.9 ± 0.54 | 2.56 ± 0.09 | 10.7 ± 0.12 | 11.2 ± 0.16 | > 100 | 243 to 245 | > 100 | strong anticancer activity | subG1 phase after treatment [10]: 7.58%; subG1 phase after treatment [11]: 56.95% |
| CC(C)=CCC[C@](C)(O)[C@H]1CC[C@]2(C)[C@@H]1[C@H](O)C[C@@H]1[C@@]3(C)CC[C@H](O[C@@H]4O[C@H](CO)[C@@H](O)[C@H](O)[C@H]4O[C@@H]4O[C@H](CO)[C@@H](O)[C@H](O)[C@H]4O)C(C)(C)[C@@H]3CC[C@]12C [Rg3, Ginsenoside-Rg3, reference compound] |  |  |  |  |  |  |  |  |  | IC50 [1]: > 100 µM; IC50 [3]: 85.2 ± 1.59 µM; IC50 [12]: > 100 µM; IC50 [13]: > 100 µM; IC50 [6]: 92.1 ± 2.36 µM; IC50 [7]: > 100 µM; IC50 [8]: > 100 µM |
| CC(C)(O)CCCC(C)(O)C1CCC2(C)C1C(OC(=O)c1ccccc1O)CC1C3(C)CCC(OC(=O)c4ccccc4O)C(C)(C)C3CCC12C [Compound 7a, 20(R)-Dammarane-20, 25-diol-3β, 12β-di-yl-2′-hydroxybenzoate] | 8.52 ± 0.15 | 35.2 ± 1.24 | 29.1 ± 0.69 | 22.7 ± 0.46 | 70.6 ± 2.12 | > 100 | 197 to 199 | > 100 | strong anticancer activity |  |
| COC(C)(C)CCC[C@@](C)(O)C1CC[C@]2(C)C1[C@H](O)CC1[C@@]3(C)CC[C@H](O)C(C)(C)C3CC[C@]12C (some centres unmarked) [AD-1, 25-methoxyprotopanaxadiol, reference compound] | 34.32 ± 0.31 | 12.99 ± 0.06 | 7.34 ± 0.19 | 16.6 ± 0.25 | 16.6 ± 0.45 |  |  |  |  | antitumor activity compared with ginsenoside-Rg3 [2]: 5–15 fold; IC50 at 48 h [4, 15]: > 100 µM; MCF-7 cell migration (wound distance) [14]: inhibited the migration of MCF-7 cells; subG1 phase after treatment [11]: 38.45%; IC50 at 48 h [5, 16]: > 100 µM |
| COC(C)(C)CCCC(C)(O)C1CCC2(C)C1C(OC(=O)c1ccccc1O)CC1C3(C)CCC(O)C(C)(C)C3CCC12C [Compound 3a, 20(R)-25-Methoxydammarane-3β,20-diol-12β-yl-2′-hydroxybenzoate] | 13 ± 0.25 | 9.78 ± 0.03 | 5.34 ± 0.04 | 10.5 ± 0.25 | 15.1 ± 0.24 | > 100 | 235 to 237 | > 100 | strong anticancer activity |  |
| CC(=O)OC1CC2C3(C)CCC(OC(=O)c4ccccc4O)C(C)(C)C3CCC2(C)C2(C)CCC(C(C)(O)CCCC(C)(C)O)C12 [Compound 6b, 20(R)-Dammarane-20,25-diol-12β-o-acetyl-3β-yl-2′-hydroxybenzoate] | > 100 | 48.3 ± 2.16 | > 100 | 15.2 ± 0.41 | 40.6 ± 1.05 | > 100 | 278 to 280 | > 100 |  |  |
